Data as given in patent EP0458363B1, “Fluorinated bis(hydroxymethyl) cyclobutyl purines and pyrimidines” (E.R. SQUIBB & SONS, INC., priority 1990, dated 1991).
Where two headings read alike, the source gives them in different places.

Key:
Format in all cases: cell-based
[1] = system: HSV-1 (herpes simplex virus type 1, strain Schooler); assay: HSV-1 antiviral plaque reduction assay in cell culture; details: WI-38 cell culture monolayers, at least 50% plaque reduction, 4 days incubation at 37°C, read-out: ID₅₀(µM) for the following viruses HSV-1
Experimental: (§1) Assays were performed in cell culture systems to determine the concentrations of compounds that are effective in preventing several kinds of viral infections.
(§2) HSV-1 (herpes simplex virus type 1, strain Schooler), HSV-2 (herpes simplex virus type 2, strain 186), VZV (varicella zoster virus, strain ELLEN), HCMV (human cytomegalovirus, strain AD 169), MuLV (murine leukemia virus, strain CAS).
(§3) HSV-1, HSV-2, HCMV, and VZV antiviral assays: Virus was adsorbed to WI-38 cell culture monolayers in 6 well culture plates (Costar, Cambridge, MA) for 1 hour prior to addition of maintenance medium containing duplicate dilutions of the test compound. Inhibition of plaque development was evaluated on fixed and stained monolayers after 4 days incubation at 37°C for HSV-1 and HSV-2 and after 6-7 days incubation at 37°C for HCMV and VZV. ID₅₀ values were determined from the drug concentration which conferred at least a 50% plaque reduction compared to virus controls.

[2] = system: VZV (varicella zoster virus, strain ELLEN); assay: VZV antiviral plaque reduction assay in cell culture; details: WI-38 cell culture monolayers, at least 50% plaque reduction, 6-7 days incubation at 37°C, read-out: ID₅₀(µM) for the following viruses VZV
Experimental: as §1, §2, §3

[3] = system: HCMV (human cytomegalovirus, strain AD 169); assay: HCMV antiviral plaque reduction assay in cell culture; details: WI-38 cell culture monolayers, at least 50% plaque reduction, 6-7 days incubation at 37°C, read-out: ID₅₀(µM) for the following viruses HCMV
Experimental: as §1, §2, §3

[4] = system: HSV-2 (herpes simplex virus type 2, strain 186); assay: HSV-2 antiviral plaque reduction assay in cell culture; details: WI-38 cell culture monolayers, at least 50% plaque reduction, 4 days incubation at 37°C, read-out: ID₅₀(µM) for the following viruses HSV-2
Experimental: as §1, §2, §3

[5] = system: MuLV (murine leukemia virus, strain CAS); assay: MuLV antiviral assay (XC syncytial plaque assay); details: SC1, SC-1 cells, XC cell overlay, syncytial plaques counted, read-out: ID₅₀(µM) for the following viruses MuLV
Experimental: as §1, §2
MuLV antiviral assay: Antiviral assays using MuLV were performed with some modification, as described by Rowe et al. and Shannon et al.. SC-1 cells were planted at approximately 2 x 10⁵ cell per well in 6 well plates. After overnight incubation at 37°C, the cell cultures were sensitised with DEAS-Dextran for one hour at 37°C, rinsed and inoculated with MuLV. Cultures were re-fed with growth medium containing different concentrations of the test compound. After three more days at 37°C, cultures were re-fed with fresh medium plus test compounds and incubated at 37°C for an additional 3 days. Cultures were then washed to remove medium, ultraviolet light irradiated, and planted with approximately 5 x 10⁵ XC cells per well in cell growth medium containing the appropriate concentration of the test compound. […] Finally the cultures were rinsed, stained and syncytial plaques were counted. […]

| Structure (SMILES) | IC50 ([1]; Human alphaherpesvirus 1, 96 h) | IC50 ([2]; Human alphaherpesvirus 3) | IC50 ([3]; Human betaherpesvirus 5) | IC50 ([4]; Human alphaherpesvirus 2, 96 h) | IC50 [5] | IC50 [1] | IC50 [2] | IC50 [3] | IC50 [4] |
| --- | --- | --- | --- | --- | --- | --- | --- | --- | --- |
| O=c1[nH]c(=O)n([C@@H]2[C@@H](F)[C@H](CO)[C@H]2CO)cc1/C=C/I [Compound V, [1S-(1α(E),2β,3α,4β)]-1-[2-fluoro-3,4-bis(hydroxymethyl)cyclobutyl]-5-(2-iodoethenyl)-2,4-(1H,3H)-pyrimidinedione] | > 252 µM | 2.5 to 25.2 µM | > 252 µM | > 252 µM |  |  |  |  |  |
| Nc1ncnc2c1ncn2[C@@H]1[C@@H](F)[C@H](CO)[C@H]1CO (racemic) [Compound III, (1α,2β,3α,4β)-3-(6-Amino-9H-purin-9-yl)-4-fluoro-1,2-cyclobutanedimethanol] | 37 µM | 37 µM | 37 µM | 7.5 to 19 µM |  |  |  |  |  |
| O=c1[nH]c(=O)n([C@@H]2[C@@H](F)[C@H](CO)[C@H]2CO)cc1/C=C/Br [Compound IV, [1S-(1α(E),2β,3α,4β)]-1-[2-fluoro-3,4-bis(hydroxymethyl)cyclobutyl]-5-(2-bromoethenyl)-2,4-(1H,3H)-pyrimidinedione] | > 286 µM | 28.6 to 286 µM | > 286 µM | > 286 µM |  |  |  |  |  |
| Nc1nc2c(ncn2[C@@H]2[C@@H](F)[C@H](CO)[C@H]2CO)c(=O)[nH]1 (racemic) [Compound I, (1α,2β,3α,4β)-2-Amino-9-[2-fluoro-3,4-bis(hydroxymethyl)cyclobutyl]-1,9-dihydro-6H-purin-6-one] | 0.7 to 1.8 µM | 1.8 to 3.5 µM | 3.5 to 35 µM | 0.7 µM | 3.5 to 7 µM |  |  |  |  |
| Nc1nc2c(ncn2[C@@H]2[C@@H](F)[C@H](CO)[C@H]2CO)c(=O)[nH]1 [Compound II, [1S-(1α,2β,3α,4β)]-2-Amino-9-[2-fluoro-3,4-bis(hydroxymethyl)cyclobutyl]-1,9-dihydro-6H-purin-6-one] |  |  |  |  |  | 0.7 to 1.8 µM | ≤ 0.7 µM | 18 to 35 µM | 0.4 to 0.7 µM |
